Where no end group is shown, it is not given here. [ ]: non-standard residue; d: D form.
B1: His6-Q9I5H3 (natural protein)
chain: MRILLVEDHPQLAESVVQALKGAGWTVDLLQDGVAADLALASEEYALAILDVGLPRMDGFEVLARLRGRGKTLPVLMLTARGEVKDRVHGLNLGADDYLAKPFELSELEARVKALLRRSVLGGEQLQRCGALVYDLGTRRFSLDEQPLTLTSREQAVLEAMIARPGRVMSKEQLAAQVFGLDEEASADAIEIYVHRLRKKLEGGAVRIVTFRGLGYLLEAQGD
notes: also called recombinant Q9I5H3 protein; PA0756; source: E. coli BL21 (pET28a), purified (His-Trap FF IMAC; gel filtration on Superdex 75)

How the values were obtained:
Q9I5H3 = test: Fluorescence binding titration of Q9I5H3 dimer with Esc(1-21)-1c; design: species or system P. aeruginosa; settings: intrinsic protein fluorescence, λexc 280 nm, emission 337 nm; 35 μM Q9I5H3 dimer, peptide 1.5 to 50 µM; 50 mM Tris-HCl pH 8.0, 150 mM NaCl, 20 °C; duplicate; one site specific binding fit; read-out: dissociation constant of the Esc(1-21)-1c–Q9I5H3 complex
Experimental: The interaction of the Esc(1-21)-1c peptide with Q9I5H3 was experimentally evaluated by fluorescence-based binding experiments. The dimeric form of the Q9I5H3 protein, purified by gel filtration, was titrated with increasing concentrations of Esc(1-21)-1c, and changes in the fluorescence emission of the protein were monitored (Figure 5).
Fluorescence experiments were performed on a Fluoromax-4 spectrofluorometer from Horiba Scientific, Piscataway, NJ, USA, using 1 cm optical path-length quartz cell under controlled temperature conditions (Peltier control system at 20 °C). Titrations were carried out in 50 mM Tris-HCl, pH 8.0 and 150 mM NaCl. Excitation wavelength used for the fluorescence titrations was 280 nm, and the spectra were recorded in the range 300–500 nm (slit 3 nm). Titrations were carried out at a fixed concentration (35 μM) of Q9I5H3 by adding increasing amounts of Esc(1-21)-1c peptide (from 1.5 to 50 µM), and the fluorescence emission was monitored at 337 nm. The experiments were performed in duplicate. The change in the fluorescence intensity was reported as a function of the peptide concentration and the data fitted with the “one site specific binding” equation of GraphPad Prism 9 (GraphPad Software LLC, La Jolla, CA, USA).

[1] = system: MexA, MexB, and OprM proteins; settings: sub-MIC dosages; cited from earlier work
Text: In the past years, we characterized the biological properties of a derivative of the frog-skin AMP esculentin-1a, namely Esc(1-21)-1c of sequence GIFSKLAGKKIKN^dLLI^dSGLKG-NH2 containing two D-amino acids, i.e., Leu14 and Ser17. […] Therefore, in-depth investigations are imperative to unravel the specific molecular mechanisms accounting for the downregulation of MexAB efflux pump by Esc(1-21)-1c. Here, we explored the intracellular mechanism of Esc(1-21)-1c at the molecular level by the identification of its putative interactors in P. aeruginosa. Functional proteomics approaches allowed us to ident ...

P. aeruginosa = settings: levels below the MIC; cited from earlier work
Text: (§1) In the past years, we characterized the biological properties of a derivative of the frog-skin AMP esculentin-1a, namely Esc(1-21)-1c of sequence GIFSKLAGKKIKN^dLLI^dSGLKG-NH2 containing two D-amino acids, i.e., Leu14 and Ser17. […] Furthermore, very recent studies have provided new insights into the global impact of Esc (1-21)-1c on P. ...

P. aeruginosa biofilm = settings: levels below the MIC; cited from earlier work
Text: as §1

Q9I5H3–DNA complex = test: EMSA competition assay, Q9I5H3 binding to MexAB–OprM promoter DNA duplex; format: biochemical, P. aeruginosa; settings: 30 μM Q9I5H3 pre-incubated with peptide (50 to 250 μM) 10 min at 25 °C, then 0.05 µM target DNA duplex for 20 min; 1.5% agarose gel, GelRed
Experimental: The putative effect of the Esc(1-21)-1c peptide on the Q9I5H3–DNA interaction was investigated by a competition assay in which the recombinant Q9I5H3 protein was pre-incubated with increasing concentrations of the peptide before adding the DNA probe. The protein–DNA complexes in the presence of different concentrations of Esc(1-21)-1c were again examined by EMSA.
The interaction of Q9I5H3 protein with DNA was investigated by EMSA experiments using the target DNA duplex as well as a control duplex-forming sequence generally used as a model of standard B-DNA duplex, the so-called Dickerson dodecamer (Supplementary Table S1). Sense and antisense oligonucleotides were annealed by incubation at 95 °C for 5 min and then gradual cooling to room temperature. Different concentrations of proteins were incubated with the DNA duplexes (0.05 µM) for 30 min at 25 °C in 20 µL of 25 mM HEPES pH 7.6, containing 50 mM KCl, 12.5 mM MgCl2, 1 mM DTT, 20% glycerol, 0.1% Triton.
For the assays, 30 μM of protein was pre-incubated with increasing concentrations of Esc(1-21)-1c for 10 min at 25 °C. Following this pre-incubation, the DNA duplex was added, and the mixture was incubated for additional 20 minutes under standard EMSA conditions.
All samples were separated on 1.5% agarose gel in Tris-borate-EDTA (TBE) running buffer at room temperature, using GelRed as dye. […]

[2] = biological target: the molecule itself; test: SEC; Superdex 75 10/300 GL calibrated with standard proteins; 50 mM Tris-HCl pH 8.0, 150 mM NaCl; peaks at 7.8 mL and 11.5 mL; monomer and dimer
His6-Q9I5H3 = biological target: B1; test: other fluorescence titration; intrinsic protein fluorescence (excitation 280 nm, emission 337 nm); 35 μM Q9I5H3 (dimeric form from gel filtration) fixed, Esc(1-21)-1c added from 1.5 to 50 µM; 50 mM Tris-HCl pH 8.0, 150 mM NaCl, 20 °C; duplicate; one site specific binding fit; settings: both partners purified
[3] = biological target: T1, Q9I5H3 (probable two-component response regulator, QseB homolog) (Pseudomonas aeruginosa, UniProt Q9I5H3 1-223); test: EMSA; protein 5-70 uM, DNA 0.05 uM; settings: protein: recombinant; tags: N-terminal His6 (pET28a); chain copies: 2; label: none (GelRed stain); blunt
T1 sequence: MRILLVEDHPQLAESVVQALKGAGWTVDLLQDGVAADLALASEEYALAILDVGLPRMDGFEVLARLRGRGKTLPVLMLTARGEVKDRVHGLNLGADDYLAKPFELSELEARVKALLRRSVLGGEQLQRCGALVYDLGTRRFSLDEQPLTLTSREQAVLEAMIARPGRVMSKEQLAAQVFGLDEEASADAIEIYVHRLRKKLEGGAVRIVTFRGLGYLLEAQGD

Molecule: GIFSKLAGKKIKN^dLLI^dSGLKG-NH2 [Esc(1-21)-1c, derivative of the frog-skin AMP esculentin-1a containing two D-amino acids, Leu14 and Ser17]
- Kd (Q9I5H3): 10 ± 0.98 µM
- effect on MexA, MexB, and OprM proteins [1]: significant downregulatory effect
- effect with the antibiotic Aztreonam in inhibiting growth and killing P. aeruginosa (P. aeruginosa): synergic effect
- effect on P. aeruginosa biofilm formation (P. aeruginosa biofilm): capability to prevent P. aeruginosa biofilm formation
- peptide concentration at which the shifted Q9I5H3–DNA complex band completely disappeared (Q9I5H3–DNA complex): 200 µM

Molecule: B1
- stoichiometry N [2]: 2

Molecule: GIFSKLAGKKIKN[dL]LI[dS]GLKG-NH2 (also called Esc(1-21)-1c peptide; AMP) [Esc(1-21)-1c]
- Kd (His6-Q9I5H3): 10 ± 0.98 µM

B2: MexAB-OprM (MexA) promoter target duplex (dsDNA)
DNA 1: CGAGTAAACCTAATGTAAATGTGGTTGATC
DNA 2: GATCAACCACATTTACATTAGGTTTACTCG
- binding result [3]: binds
